Source: patent EP4768489A1, “CYCLOBUTYL-CONTAINING COMPOUNDS” (Chia Tai Tianqing Pharmaceutical Group Co., Ltd., priority 2023, dated 2025)
Where a chain is given by its changes, count along the chain named.

What was measured:
[1] = In vitro liver microsome stability, human; assay type: in vitro ADME; conditions: human liver microsomes 0.5 mg/mL, 37 °C, NADPH
Procedure: (§1) Liver microsome incubation samples were prepared by mixing a PBS buffer (pH 7.4), a liver microsome solution (0.5 mg/mL), a test compound, and an NADPH + MgCl2 solution, followed by incubation at 37 °C and 300 rpm for 1 h. Zero-hour samples were prepared by mixing a PBS buffer (pH 7.4), a liver microsome solution (0.5 mg/mL), and a test compound. […]

[2] = biological target: T1, AR in MDA-PCA-2B (L702H\T878A) cells (Homo sapiens, UniProt P10275, L702H/T878A); assay: Assay on degradation activity for AR in MDA-PCA-2B (L702H\T878A) cells (HTRF); assay type: cell-based; conditions: 24 h; for DC50: AR degradation; for Dmax: maximum degradation rate
T1 construct: Assay on degradation activity for AR in MDA-PCA-2B (L702H\T878A) cells; endogenous in cells; host or cells: MDA-PCA-2B cells
T1 sequence (P10275 1-920 L702H/T878A): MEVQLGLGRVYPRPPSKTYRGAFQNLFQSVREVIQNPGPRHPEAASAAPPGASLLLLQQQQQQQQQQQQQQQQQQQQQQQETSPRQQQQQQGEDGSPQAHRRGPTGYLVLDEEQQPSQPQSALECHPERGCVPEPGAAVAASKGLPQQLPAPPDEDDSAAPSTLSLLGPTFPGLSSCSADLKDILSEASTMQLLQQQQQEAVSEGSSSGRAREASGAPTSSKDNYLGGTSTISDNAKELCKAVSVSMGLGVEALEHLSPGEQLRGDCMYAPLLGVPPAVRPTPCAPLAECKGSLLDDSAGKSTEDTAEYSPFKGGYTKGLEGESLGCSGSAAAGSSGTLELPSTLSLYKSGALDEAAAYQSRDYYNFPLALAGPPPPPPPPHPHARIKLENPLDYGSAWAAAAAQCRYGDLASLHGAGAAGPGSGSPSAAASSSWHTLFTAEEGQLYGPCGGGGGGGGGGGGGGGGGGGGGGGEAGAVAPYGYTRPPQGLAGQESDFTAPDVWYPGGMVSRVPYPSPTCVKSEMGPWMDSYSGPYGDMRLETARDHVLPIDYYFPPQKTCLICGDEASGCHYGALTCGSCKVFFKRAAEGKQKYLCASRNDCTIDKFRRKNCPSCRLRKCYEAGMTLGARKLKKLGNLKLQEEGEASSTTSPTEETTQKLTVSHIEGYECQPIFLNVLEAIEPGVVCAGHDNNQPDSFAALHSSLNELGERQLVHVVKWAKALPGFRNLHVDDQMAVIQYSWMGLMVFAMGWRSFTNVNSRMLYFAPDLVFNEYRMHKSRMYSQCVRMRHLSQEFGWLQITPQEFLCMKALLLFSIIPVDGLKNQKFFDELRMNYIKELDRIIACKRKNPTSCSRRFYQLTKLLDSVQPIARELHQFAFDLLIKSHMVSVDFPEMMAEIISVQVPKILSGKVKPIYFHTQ
Procedure: (§2) The detection was carried out using the HTRF HUMAN ANDROGEN RECEPTOR DETECTION KIT (cisbio, 64ANDRPEG), 4× Supplemented Lysis buffer was prepared using the Blocking reagent stock solution (100×) and Lysis buffer stock solution (4×), and 1× Supplemented Lysis buffer was prepared using the 4× Supplemented Lysis buffer and ddH2O. Premixed antibody solutions were prepared using Detection buffer, Androgen Receptor Eu Cryptate antibody, and Androgen Receptor d2 antibody.
The cells were cultured overnight in a cell incubator. […] After the cells were oscillated for 40 min at room temperature, 16 µL of the cell lysis buffer was added to a 384-well plate, the Premixed antibody solutions were added at 4 µL/well, and the mixture was left to stand at 25 °C for 2 h. […]

Mouse pharmacokinetics = conditions: Mouse i.g. (0-48 h), 10 mpk vs i.v. 1 mpk
Procedure: ICR mice weighing 18-22 g were randomized into groups of 9 after 3-5 days of acclimatization. The mice in the intragastric administration group were intragastrically given the test compound solution at a dose of 10 mg/kg (20 mg/kg or 30 mg/kg), and the mice in the intravenous injection administration group were intravenously injected with the test compound solution at a dose of 1 mg/kg.
Blood was collected from the orbit to prepare plasma samples to be tested.
30 µL of each of the plasma samples to be tested and a standard curve sample were taken, and an acetonitrile solution containing an internal standard was added. Supernatants were obtained by protein precipitation, diluted with a 1:1 (v:v) mixed solution of acetonitrile and water, and then assayed by LC/MS/MS. Data were fitted using a non-compartmental model.

AR in VCaP cells = biological target: T2, AR in VCaP cells (Homo sapiens, UniProt P10275); assay: Assay on degradation activity for AR in VCaP cells (HTRF human androgen receptor detection kit); assay type: cell-based; conditions: 24 h; for DC50: AR degradation; for Dmax: maximum degradation rate
T2 construct: Assay on degradation activity for AR in VCaP cells; endogenous in cells; host or cells: VCaP cells
T2 sequence (P10275 1-920): T1 sequence (P10275 1-920 L702H/T878A) with H702L, A878T
Procedure: as §2
The cells were cultured overnight in a cell incubator. […] After the cells were oscillated for 40 min at room temperature, 16 µL of the cell lysis buffer was added to a 384-well plate, the Premixed antibody solutions were added at 4 µL/well, and the mixture was left to stand at 25 °C for 2 h. […] Table 1. Degradation activity of compounds for AR in VCaP cells

[3] = In vitro liver microsome stability, mouse; assay type: in vitro ADME; conditions: mouse liver microsomes 0.5 mg/mL, 37 °C, NADPH
Procedure: as §1

[4] = tested on: MDA-PCA-2B (L702H\T878A) cells; assay: Assay on inhibitory activity for MDA-PCA-2B (L702H\T878A) cell proliferation (CCK-8); assay type: cell-based; conditions: 168 h
Text: Table 7. Inhibitory activity of compounds for MDA-PCA-2B (L702H\T878A) cell proliferation

VCaP cells = assay: Assay on inhibitory activity for VCaP cell proliferation (CCK-8); assay type: cell-based; conditions: Homo sapiens, 168 h

Row | SMILES | HLM (human) Remaining amount at 60 min % [1] | DC50 [2] | Dmax [2] | F (Mouse pharmacokinetics) | DC50 (AR in VCaP cells) | Dmax (AR in VCaP cells) | MLM (mouse) Remaining amount at 60 min % [3] | IC50 [4] | IC50 (VCaP cells)
1 | COc1cc(O[C@H]2C(C)(C)[C@H](NC(=O)c3ccc(N4CCC(CN5CCc6c(ccc7c(C8CCC(=O)NC8=O)noc67)C5)CC4)cc3)C2(C)C)ccc1C#N (stereo partly shown) [Compound 1] | >70% | < 500 nM | > 70% | 31.99% | < 5 nM | > 75% | >70% | < 500 nM | < 2000 nM
2 | COc1cc(O[C@H]2C(C)(C)[C@H](NC(=O)c3ccc(N4CCC(CN5CCc6c(ccc7c(C8CCC(=O)NC8=O)noc67)C5)CC4)nc3)C2(C)C)ccc1C#N (stereo partly shown) [Compound 3] | >70% | < 500 nM | > 70% | – | < 5 nM | > 75% | >70% | < 500 nM | < 2000 nM
3 | COc1cc(O[C@H]2C(C)(C)[C@H](NC(=O)c3cnc(N4CCC(CN5CCc6c(ccc7c(C8CCC(=O)NC8=O)noc67)C5)CC4)nc3)C2(C)C)ccc1C#N (stereo partly shown) [Compound 4] | >70% | < 500 nM | > 70% | 55.36% | < 5 nM | > 75% | >70% | < 500 nM | < 2000 nM
4 | COc1cc(O[C@H]2C(C)(C)[C@H](NC(=O)c3cnc(N4CCC(CN5CCc6c(ccc7c(C8CCC(=O)NC8=O)noc67)C5)CC4)cn3)C2(C)C)ccc1C#N (stereo partly shown) [Compound 5] | >70% | < 500 nM | > 70% | 50.78% | < 5 nM | > 75% | >70% | < 500 nM | < 2000 nM
5 | COc1cc(O[C@H]2C(C)(C)[C@H](NC(=O)c3ccc(N4CCC(CN5CCc6c(ccc7c(C8CCC(=O)NC8=O)noc67)C5)CC4)nn3)C2(C)C)ccc1C#N (stereo partly shown) [Compound 6] | – | < 500 nM | > 70% | – | < 5 nM | > 75% | >70% | – | –
